Results published in PubChem BioAssay AID248 (DTP/NCI, 2004).
“And” between values parts separate entries of the source, which are not always exact repeats. Identical values can stand only once. Inconclusive results and toxic doses are left out. No stated cut-off is given here; in the data, active means T/C of 150% or more; inactive means T/C below 125%. Square brackets hold non-standard residues; d marks the D form. Peptide text beside a SMILES is read from it. ξ: configuration not given here. ξV = CC(C)C(N)C(=O)O

Test system: L1210 leukemia ip in BDF1 mice, survival T/C
Experiment: NCI In Vivo Anticancer Drug Screen. Data for tumor model L1210 Leukemia (intraperitoneal) in B6D2F1 (BDF1) mice
Conditions: endpoint: mean survival time, higher = longer survival
Method in brief: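 Tumor was transplanted into mice, which were then dosed with test compound or vehicle alone. Survival was recorded for each group, and the treated figure was expressed relative to the control figure.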

[1] = dose: 100.0 mg/kg/injection, schedule: Q04DX003 (ip), vehicle: saline
[2] = dose: 200.0 mg/kg/injection, schedule: Q04DX003 (ip), vehicle: saline
[3] = dose: 400.0 mg/kg/injection, schedule: Q04DX003 (ip), vehicle: saline
[4] = dose: 100.0 mg/kg/injection, schedule: Q01DX009 (ip), vehicle: Klucel (hydroxypropylcellulose) (HPC)
[5] = dose: 200.0 mg/kg/injection, schedule: Q01DX009 (ip), vehicle: Klucel (hydroxypropylcellulose) (HPC)
[6] = dose: 400.0 mg/kg/injection, schedule: Q01DX009 (ip), vehicle: Klucel (hydroxypropylcellulose) (HPC)
[7] = dose: 100.0 mg/kg/injection, schedule: Q04DX003 (ip), vehicle: Klucel (hydroxypropylcellulose) (HPC)
[8] = dose: 200.0 mg/kg/injection, schedule: Q04DX003 (ip), vehicle: Klucel (hydroxypropylcellulose) (HPC)
[9] = dose: 400.0 mg/kg/injection, schedule: Q04DX003 (ip), vehicle: Klucel (hydroxypropylcellulose) (HPC)
[10] = dose: 100.0 mg/kg/injection, schedule: Q01DX009 (ip), vehicle: saline with Tween-80
[11] = dose: 200.0 mg/kg/injection, schedule: Q01DX009 (ip), vehicle: saline with Tween-80

Measured: T/C

CC(C)C(NC(=O)CN)C(=O)O (centres undefined) (H-Gly-[ξV]-OH)
inactive: dose: 50.0 mg/kg/injection, schedule: Q04DX002 (ip), vehicle: saline 107 % of control | dose: 100.0 mg/kg/injection, schedule: Q01DX009 (ip), vehicle: saline 98 % of control | dose: 100.0 mg/kg/injection, schedule: Q04DX002 (ip), vehicle: saline 110 % of control | [1] 97 % of control | dose: 200.0 mg/kg/injection, schedule: Q01DX009 (ip), vehicle: saline 111 % of control | dose: 200.0 mg/kg/injection, schedule: Q04DX002 (ip), vehicle: saline 103 % of control | [2] 124 % of control | dose: 400.0 mg/kg/injection, schedule: Q01DX009 (ip), vehicle: saline 112 % of control | [3] 97 % of control

O=[N+]([O-])c1cccc(C=Nc2cccc3ccccc23)c1
inactive: [4] 96 % of control | [5] 98 % of control | [6] 88 % of control

O=C(O)c1cccnn1
inactive: dose: 100.0 mg/kg/injection, schedule: Q01DX001 (ip), vehicle: saline 104 % of control | dose: 200.0 mg/kg/injection, schedule: Q01DX001 (ip), vehicle: saline 97 % of control

CCCCCCCC1CCC(N)CC1 (centres undefined)
inactive: dose: 12.5 mg/kg/injection, schedule: Q04DX003 (ip), vehicle: Klucel (hydroxypropylcellulose) (HPC) 105 % of control | dose: 25.0 mg/kg/injection, schedule: Q04DX003 (ip), vehicle: Klucel (hydroxypropylcellulose) (HPC) 91 % of control | dose: 50.0 mg/kg/injection, schedule: Q04DX003 (ip), vehicle: Klucel (hydroxypropylcellulose) (HPC) 100 % of control

COc1ccc(OC)c(NC(=O)C2CC2)c1
inactive: [1] 94 % of control | [2] 99 % of control | [3] 103 % of control

COc1cc2cc3c4cc(OC)c(OC)cc4cc[n+]3c(/C=C/c3cc([N+](=O)[O-])ccc3O)c2cc1OC
inactive: dose: 100.0 mg/kg/injection, schedule: Q01DX001 (ip), vehicle: other 97 % of control and 100 % of control | dose: 100.0 mg/kg/injection, schedule: Q04DX002 (ip), vehicle: other 112 % of control and 92 % of control | dose: 100.0 mg/kg/injection, schedule: Q04DX003 (ip), vehicle: other 106 % of control | dose: 200.0 mg/kg/injection, schedule: Q01DX001 (ip), vehicle: other 97 % of control and 103 % of control | dose: 200.0 mg/kg/injection, schedule: Q04DX002 (ip), vehicle: other 95 % of control and 88 % of control | dose: 200.0 mg/kg/injection, schedule: Q04DX003 (ip), vehicle: other 106 % of control | dose: 400.0 mg/kg/injection, schedule: Q01DX001 (ip), vehicle: other 96 % of control and 107 % of control | dose: 400.0 mg/kg/injection, schedule: Q04DX002 (ip), vehicle: other 94 % of control and 98 % of control | dose: 400.0 mg/kg/injection, schedule: Q04DX003 (ip), vehicle: other 101 % of control

CCOc1ccc(NC(=O)OC(C)C)cc1
inactive: [7] 89 % of control | [8] 94 % of control | [9] 103 % of control

COC1OC2COc3ccccc3OC2C(N=C(N)N[N+](=O)[O-])C1O (centres undefined)
inactive: dose: 100.0 mg/kg/injection, schedule: Q01DX009 (ip), vehicle: gum acacia 97 % of control | dose: 200.0 mg/kg/injection, schedule: Q01DX009 (ip), vehicle: gum acacia 100 % of control | dose: 400.0 mg/kg/injection, schedule: Q01DX009 (ip), vehicle: gum acacia 95 % of control

Oc1c(Cl)cc(Cl)c(Cl)c1CN1CCOCC1
inactive: dose: 55.0 mg/kg/injection, schedule: Q01DX Z (ip), vehicle: methylcellulose (MC) 98 % of control | dose: 83.0 mg/kg/injection, schedule: Q01DX Z (ip), vehicle: methylcellulose (MC) 116 % of control | dose: 125.0 mg/kg/injection, schedule: Q01DX Z (ip), vehicle: methylcellulose (MC) 104 % of control

O=C(O)c1cc(Cl)cc2c1-c1ccc(Cl)cc1C2Br (centres undefined)
inactive: dose: 18.7 mg/kg/injection, schedule: Q01DX009 (ip), vehicle: carboxymethylcellulose (CMC) 96 % of control | dose: 75.0 mg/kg/injection, schedule: Q01DX001 (ip), vehicle: carboxymethylcellulose (CMC) 98 % of control | dose: 150.0 mg/kg/injection, schedule: Q01DX001 (ip), vehicle: carboxymethylcellulose (CMC) 91 % of control

O=C(O)c1cc2ccccc2s1
inactive: dose: 50.0 mg/kg/injection, schedule: Q01DX009 (ip), vehicle: Klucel (hydroxypropylcellulose) (HPC) 98 % of control | [4] 101 % of control | [7] 102 % of control | [5] 95 % of control | [8] 94 % of control

CCC1(CCCCCCC(=O)CC(C)=O)OCCO1
inactive: [4] 105 % of control | [5] 104 % of control | [6] 91 % of control

CCOC(=O)c1cnc2ccc(OC)cc2c1Cl
inactive: [10] 95 % of control | dose: 100.0 mg/kg/injection, schedule: Q04DX003 (ip), vehicle: saline with Tween-80 107 % of control | [11] 101 % of control | dose: 200.0 mg/kg/injection, schedule: Q04DX003 (ip), vehicle: saline with Tween-80 104 % of control | dose: 400.0 mg/kg/injection, schedule: Q01DX009 (ip), vehicle: saline with Tween-80 97 % of control | dose: 400.0 mg/kg/injection, schedule: Q04DX003 (ip), vehicle: saline with Tween-80 96 % of control

CC1(C)OC(=O)C2C3CCC(C2C(=O)O)C31 (centres undefined)
inactive: [7] 100 % of control | [8] 96 % of control | [9] 100 % of control

[B-][N+](CC)(CC)c1ccccc1
inactive: dose: 50.0 mg/kg/injection, schedule: Q01DX009 (ip), vehicle: saline with Tween-80 92 % of control | [10] 95 % of control | [11] 92 % of control

CC/C=N\N=C(N)N
inactive: dose: 15.0 mg/kg/injection, schedule: Q01DX Z (ip), vehicle: saline 101 % of control | dose: 30.0 mg/kg/injection, schedule: Q01DX Z (ip), vehicle: saline 106 % of control | dose: 60.0 mg/kg/injection, schedule: Q01DX Z (ip), vehicle: saline 100 % of control | dose: 120.0 mg/kg/injection, schedule: Q01DX010 (oral), vehicle: saline 94 % of control | dose: 120.0 mg/kg/injection, schedule: Q01DX Z (ip), vehicle: saline 100 % of control | dose: 240.0 mg/kg/injection, schedule: Q01DX010 (oral), vehicle: saline 98 % of control | dose: 240.0 mg/kg/injection, schedule: Q01DX Z (ip), vehicle: saline 95 % of control

CN(CCC#N)c1ccc(/C=C(\C#N)c2ccc(Br)cc2)cc1
inactive: [4] 94 % of control | [5] 94 % of control | [6] 96 % of control

OC(CNc1ccc(Cl)cc1)CN1CCOCC1 (centres undefined)
inactive: [1] 96 % of control | [2] 89 % of control

O=S(=O)(Nc1ccc(Cl)cc1Cl)c1ccccc1
inactive: [7] 103 % of control | [8] 103 % of control | [9] 103 % of control

O=C(Nc1cc([N+](=O)[O-])ccc1Cl)Nc1ccccc1C(F)(F)F
inactive: [4] 104 % of control | [5] 94 % of control | [6] 93 % of control

c1ccc2c(c1)ccc1c2ccc2cccc[n+]21
inactive: dose: 1.25 mg/kg/injection, schedule: Q01DX001 (ip), vehicle: saline 97 % of control | dose: 2.5 mg/kg/injection, schedule: Q01DX001 (ip), vehicle: saline 97 % of control | dose: 5.0 mg/kg/injection, schedule: Q01DX001 (ip), vehicle: saline 103 % of control | dose: 5.0 mg/kg/injection, schedule: Q01DX015 (ip), vehicle: saline 103 % of control | dose: 10.0 mg/kg/injection, schedule: Q01DX001 (ip), vehicle: saline 107 % of control
